IC50 data for 50 compounds are collected here from patent publication US8865703B2, “Pyridyltriazoles” (Boehringer Ingelheim International GmbH, priority 2010, dated 2014).

By IC50 is commonly meant the midpoint of a concentration-inhibition curve. A higher IC50 goes with weaker potency.

In the experiment the target is T1, B-Raf (V600E)-kinase (Homo sapiens, UniProt P15056, V600E).
T1 construct: purchased Upstate
T1 sequence (P15056 whole entry V600E): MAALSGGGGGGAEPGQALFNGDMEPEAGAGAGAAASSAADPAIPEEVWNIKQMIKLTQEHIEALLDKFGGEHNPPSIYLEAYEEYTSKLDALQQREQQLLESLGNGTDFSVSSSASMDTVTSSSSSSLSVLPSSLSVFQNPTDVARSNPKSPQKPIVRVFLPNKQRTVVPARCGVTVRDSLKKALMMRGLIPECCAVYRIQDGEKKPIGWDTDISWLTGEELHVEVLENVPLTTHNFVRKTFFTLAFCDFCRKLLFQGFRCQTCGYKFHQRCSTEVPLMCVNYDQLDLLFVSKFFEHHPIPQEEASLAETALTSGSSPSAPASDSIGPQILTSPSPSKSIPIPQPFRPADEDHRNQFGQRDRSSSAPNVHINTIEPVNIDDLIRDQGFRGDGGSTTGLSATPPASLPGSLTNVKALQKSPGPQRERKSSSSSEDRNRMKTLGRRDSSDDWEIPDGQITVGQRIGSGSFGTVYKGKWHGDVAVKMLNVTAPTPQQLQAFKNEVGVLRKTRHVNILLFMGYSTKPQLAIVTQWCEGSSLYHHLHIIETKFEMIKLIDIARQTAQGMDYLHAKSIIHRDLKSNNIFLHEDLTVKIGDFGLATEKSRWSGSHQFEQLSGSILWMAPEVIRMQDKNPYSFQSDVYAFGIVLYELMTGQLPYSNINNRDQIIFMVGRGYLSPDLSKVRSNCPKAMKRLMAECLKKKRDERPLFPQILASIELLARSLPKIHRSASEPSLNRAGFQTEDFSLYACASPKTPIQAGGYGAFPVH
Briefly: Kinase test B-Raf (V600E). Format: biochemical. The settings on record: 1 h incubation with kinase before start, 250 μM ATP, biotinylated MEK1 substrate. Here is the method:
Kinase Test B-Raf (V600E)
In a dilution series 10 μL/well of test substance solution are placed in a multiwell plate. The dilution series is selected so that generally a range of concentrations of 2 μM to 0.119 nM or 0.017 nM is covered. If necessary the initial concentration of 2 μM is changed to 50 μM, 10 μM, 0.4 μM or 0.2857 μM and further dilution is carried out accordingly. The final concentration of DMSO is 5%. 10 μL/well of the B-Raf (V600E)-kinase solution are pipetted in (containing 0.5 ng B-Raf (V600E)-kinase, e.g. from Upstate) in 20 mM tris-HCl pH 7.5, 0.1 mM EDTA, 0.1 mM EGTA, 0.286 mM sodium orthovanadate, 10% glycerol, 1 mg/mL bovine serum albumin, 1 mM dithiothreitol) and the mixture is incubated for 1 h at RT with shaking. The kinase reaction is started by the addition of 20 μL/well ATP solution [final concentration: 250 μM ATP, 30 mM tris-HCl pH 7.5, 0.02% Brij, 0.2 mM sodium orthovanadate, 10 mM magnesium acetate, 0.1 mM EGTA, phosphatase cocktail (Sigma, # P2850, dilution recommended by the manufacturer)] and 10 μL/well MEK1 solution [containing 50 ng biotinylated MEK1 (prepared from purified MEK1 according to standard procedure, e.g. with EZ-Link Sulpho-NHS-LC-Biotin reagent, Pierce, #21335)] and carried out for 60 min at RT with constant shaking. The reaction is stopped by the addition of 12 μL/well of a 100 mM EDTA solution and incubation is continued for a further 5 min. 55 μL/well of the reaction solution are transferred into a streptavidin-coated plate (e.g. Streptawell HighBond, Roche, #11989685001) and gently shaken for 1 h at RT in order to bind biotinylated MEK1 to the plate. After elimination of the liquid the plate is washed five times with 200 μL/well of 1×PBS and 100 μL/well solution of primary antibody plus europium-labelled secondary antibody [Anti Phospho-MEK (Ser217/221), Cell Signaling, #9121 and Eu-N1 labelled goat-anti-rabbit antibody, Perkin Elmer, # AD0105] is added, the primary antibody is diluted 1:2000 and the secondary antibody is diluted to 0.4-0.5 μg/mL in Delfia Assay Buffer (Perkin Elmer, #1244-111). After 1 h shaking at RT the solution is poured away and washed five times with 200 μL/well Delfia Wash Buffer (Perkin Elmer, #4010-0010/#1244-114). After the addition of 200 μL/well Enhancement Solution (Perkin Elmer, #4001-0010/#1244-105) the mixture is shaken for 10 min at RT and then measured in a Wallac Victor using the program “Delfia Time Resolved Fluorescence (Europium)”. IC50 values are obtained from these dosage-activity curves using a software program (GraphPadPrizm).
`Cc1ncc(NC(=O)c2ccc(C(C)(C)C)o2)cc1-n1cc(-c2cncc(N3CCN(C(C)C)CC3)c2)nn1` [I-1] showed an IC50 of 4 nM.
With `Cc1ncc(NC(=O)c2ccc(C(C)(C)C)o2)cc1-n1cc(-c2cncc(N3CCN(C)CC3)c2)nn1` [I-2] the figure was 2 nM.
As for `CCN1CCN(c2cncc(-c3cn(-c4cc(NC(=O)c5ccc(C(C)(C)C)o5)cnc4C)nn3)c2)CC1` [I-3], 3 nM corresponded to half-maximal inhibition (IC50).
With `Cc1ncc(NC(=O)c2ccc(C(C)(C)C)o2)cc1-n1cc(-c2cncc(N3CCN(C(C)(C)C)CC3)c2)nn1` [I-4] the figure was 4 nM.
With `Cc1ncc(NC(=O)c2ccc(C(C)(C)C)o2)cc1-n1cc(-c2cncc(N3CCN(CC4CC4)CC3)c2)nn1` [I-5] the figure was 3 nM.
Turning to `COCCCN1CCN(c2cncc(-c3cn(-c4cc(NC(=O)c5ccc(C(C)(C)C)o5)cnc4C)nn3)c2)CC1` [I-6], the midpoint of inhibition, the IC50, lay at 5 nM.
With `CCOCCN1CCN(c2cncc(-c3cn(-c4cc(NC(=O)c5ccc(C(C)(C)C)o5)cnc4C)nn3)c2)CC1` [I-7] the figure was 5 nM; with `CCOCCN1CCN(c2cncc(-c3cn(-c4cc(NC(=O)c5ccc(C(C)(C)C)s5)cnc4C)nn3)c2)CC1` [I-8], 8 nM.
Turning to `COCCCN1CCN(c2cncc(-c3cn(-c4cc(NC(=O)c5ccc(C(C)(C)C)s5)cnc4C)nn3)c2)CC1` [I-9], the IC50 stood at 7 nM.
In the case of `Cc1ncc(NC(=O)c2ccc(C(C)(C)C)s2)cc1-n1cc(-c2cncc(N3CCN(CC4CC4)CC3)c2)nn1` [I-10], the IC50 was found to be 6 nM.
`Cc1ncc(NC(=O)c2ccc(C(C)(C)C)s2)cc1-n1cc(-c2cncc(N3CCN(C(C)(C)C)CC3)c2)nn1` [I-11] showed an IC50 of 6 nM.
`CCN1CCN(c2cncc(-c3cn(-c4cc(NC(=O)c5ccc(C(C)(C)C)s5)cnc4C)nn3)c2)CC1` [I-12]: the IC50 worked out at 3 nM. Compared with the last compound, the IC50 is about 2-fold lower.
Regarding `Cc1ncc(NC(=O)c2ccc(C(C)(C)C)s2)cc1-n1cc(-c2cncc(N3CCN(C(C)C)CC3)c2)nn1` [I-13], the IC50 came to 5 nM.
On to `Cc1ncc(NC(=O)c2ccc(C(C)(C)C)s2)cc1-n1cc(-c2cncc(N3CCN(C)CC3)c2)nn1` [I-14], for which the IC50 turned out to be 2 nM.
With `Cc1ncc(NC(=O)c2cc(C)n(C(C)(C)C)n2)cc1-n1cc(-c2cncc(N3CCN(C4CC4)CC3)c2)nn1` [I-15] the figure was 20 nM; with `Cc1ncc(NC(=O)c2cc(C)n(C(C)(C)C)n2)cc1-n1cc(-c2cncc(N3CCCN(C)CC3)c2)nn1` [I-16], 9 nM.
With `CCCN1CCN(c2cncc(-c3cn(-c4cc(NC(=O)c5cc(C)n(C(C)(C)C)n5)cnc4C)nn3)c2)CC1` [I-17] the figure was 10 nM; with `Cc1ncc(NC(=O)c2cc(C)n(C(C)(C)C)n2)cc1-n1cc(-c2cncc(N3CCN(C)CC3)c2)nn1` [I-18], 8 nM; with `Cc1ncc(NC(=O)c2cc(C)n(C(C)(C)C)n2)cc1-n1cc(-c2cncc(N3CCN(C(C)C)CC3)c2)nn1` [I-19], 8 nM.
The compound `CCN1CCN(c2cncc(-c3cn(-c4cc(NC(=O)c5cc(C)n(C(C)(C)C)n5)cnc4C)nn3)c2)CC1` [I-20] displayed an IC50 of 7 nM.
Compound `Cc1ncc(NC(=O)c2cc(C)n(C(C)(C)C)n2)cc1-n1cc(-c2cncc(N3CCN(C(C)(C)C)CC3)c2)nn1` [I-21] returned an IC50 of 9 nM.
In turn, `Cc1ncc(NC(=O)c2cc(C)n(C(C)(C)C)n2)cc1-n1cc(-c2cncc(N3CCN(CC4CC4)CC3)c2)nn1` [I-22] registered an IC50 of 11 nM.
Compound `COCCCN1CCN(c2cncc(-c3cn(-c4cc(NC(=O)c5cc(C)n(C(C)(C)C)n5)cnc4C)nn3)c2)CC1` [I-23] gave an IC50 of 14 nM.
In turn, `CCOCCN1CCN(c2cncc(-c3cn(-c4cc(NC(=O)c5cc(C)n(C(C)(C)C)n5)cnc4C)nn3)c2)CC1` [I-24] showed an IC50 of 16 nM.
Compound `Cc1ncc(NC(=O)c2cc(C)n(C(C)(C)C)n2)cc1-n1cc(-c2cncc(N3CCN(CCOC(C)C)CC3)c2)nn1` [I-25] gave an IC50 of 16 nM.
With `CCc1cc(C(=O)Nc2cnc(C)c(-n3cc(-c4cncc(N5CCN(C6CC6)CC5)c4)nn3)c2)nn1C(C)(C)C` [I-26], half-maximal inhibition (IC50) required 55 nM.
`CCc1cc(C(=O)Nc2cnc(C)c(-n3cc(-c4cncc(N5CCN(C(C)C)CC5)c4)nn3)c2)nn1C(C)(C)C` [I-27] had an IC50 of 12 nM.
The compound `CCCN1CCN(c2cncc(-c3cn(-c4cc(NC(=O)c5cc(CC)n(C(C)(C)C)n5)cnc4C)nn3)c2)CC1` [I-28] came in with an IC50 of 7 nM.
The compound `Cc1ncc(NC(=O)c2cc(C)n(C(C)(C)C)n2)cc1-n1cc(-c2cncc(N3CCCN(C(C)C)CC3)c2)nn1` [I-29] came in with an IC50 of 19 nM. Against the preceding compound, the IC50 is about 2.7-fold higher.
For `CCc1cc(C(=O)Nc2cnc(C)c(-n3cc(-c4cncc(N5CCN(C)CC5)c4)nn3)c2)nn1C(C)(C)C` [I-30], half-maximal inhibition (IC50) was put at 15 nM.
For the compound `CCc1cc(C(=O)Nc2cnc(C)c(-n3cc(-c4cncc(N5CCN(CC)CC5)c4)nn3)c2)nn1C(C)(C)C` [I-31], it took 12 nM to reach half-maximal inhibition (IC50).
Take `CCCc1cc(C(=O)Nc2cnc(C)c(-n3cc(-c4cncc(N5CCN(C6CC6)CC5)c4)nn3)c2)nn1C(C)(C)C` [I-32]: inhibition was half-maximal at 71 nM (IC50).
Compound `CCCc1cc(C(=O)Nc2cnc(C)c(-n3cc(-c4cncc(N5CCN(CC)CC5)c4)nn3)c2)nn1C(C)(C)C` [I-33] returned an IC50 of 16 nM.
For `CCCc1cc(C(=O)Nc2cnc(C)c(-n3cc(-c4cncc(N5CCN(C(C)C)CC5)c4)nn3)c2)nn1C(C)(C)C` [I-34], the IC50 stood at 23 nM.
With `CCCc1cc(C(=O)Nc2cnc(C)c(-n3cc(-c4cncc(N5CCN(CCC)CC5)c4)nn3)c2)nn1C(C)(C)C` [I-35] the figure was 22 nM; with `CCCc1cc(C(=O)Nc2cnc(C)c(-n3cc(-c4cncc(N5CCN(C)CC5)c4)nn3)c2)nn1C(C)(C)C` [I-36], 18 nM; with `Cc1ncc(NC(=O)c2cc(C(C)C)n(C(C)(C)C)n2)cc1-n1cc(-c2cncc(N3CCN(C)CC3)c2)nn1` [I-37], 17 nM.
As to `Cc1ncc(NC(=O)c2cc(C(C)C)n(C(C)(C)C)n2)cc1-n1cc(-c2cncc(N3CCN(C(C)C)CC3)c2)nn1` [I-38], the IC50 is 29 nM.
With `CCN1CCN(c2cncc(-c3cn(-c4cc(NC(=O)c5cc(C(C)C)n(C(C)(C)C)n5)cnc4C)nn3)c2)CC1` [I-39], the IC50 turned out to be 25 nM.
Compound `CCCN1CCN(c2cncc(-c3cn(-c4cc(NC(=O)c5cc(C(C)C)n(C(C)(C)C)n5)cnc4C)nn3)c2)CC1` [I-40] displayed an IC50 of 26 nM.
With `Cc1ncc(NC(=O)c2cc(C3CC3)n(C(C)(C)C)n2)cc1-n1cc(-c2cncc(N3CCN(C)CC3)c2)nn1` [I-41] the figure was 16 nM; with `Cc1ncc(NC(=O)c2cc(C3CC3)n(C(C)(C)C)n2)cc1-n1cc(-c2cncc(N3CCN(C(C)C)CC3)c2)nn1` [I-42], 22 nM; with `CCN1CCN(c2cncc(-c3cn(-c4cc(NC(=O)c5cc(C6CC6)n(C(C)(C)C)n5)cnc4C)nn3)c2)CC1` [I-43], 22 nM.
Regarding `CCCN1CCN(c2cncc(-c3cn(-c4cc(NC(=O)c5cc(C6CC6)n(C(C)(C)C)n5)cnc4C)nn3)c2)CC1` [I-44], the IC50 is 30 nM.
The compound `Cc1ncc(NC(=O)c2cc(C)n(C(C)C)n2)cc1-n1cc(-c2cncc(N3CCN(C)CC3)c2)nn1` [I-45] came in with an IC50 of 9 nM.
With `CCN1CCN(c2cncc(-c3cn(-c4cc(NC(=O)c5cc(C)n(C(C)C)n5)cnc4C)nn3)c2)CC1` [I-46] the figure was 6 nM; with `Cc1ncc(NC(=O)c2cc(C)n(C(C)C)n2)cc1-n1cc(-c2cncc(N3CCN(C(C)C)CC3)c2)nn1` [I-47], 6 nM.
`CCCN1CCN(c2cncc(-c3cn(-c4cc(NC(=O)c5cc(C)n(C(C)C)n5)cnc4C)nn3)c2)CC1` [I-48] displayed a half-inhibitory concentration (IC50) of 8 nM.
`Cc1ncc(NC(=O)c2cc(C)n(C(C)C)n2)cc1-n1cc(-c2cncc(N3CCN(C4CC4)CC3)c2)nn1` [I-49] came in with an IC50 of 22 nM.
With `Cc1ncc(NC(=O)c2cc(C)n(C(C)C)n2)cc1-n1cc(-c2cncc(N3CCCN(C)CC3)c2)nn1` [I-50] the figure was 5 nM.
